Key:
Format in all cases: cell-based
[1] = tested on: HAP1 MTAP-deleted cell line; assay: Viability assay (CellTiter-Glo), HAP1 MTAP-deleted; details: Homo sapiens, 168 h, HAP1 MTAP-deleted cells, 7 days
In short: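 HAP1 MTAP-deleted and MTAP-intact cells seeded, then dosed next day (n=3, 0.2% DMSO) and grown 7 days. Viability by CellTiter-Glo luminescence, expressed as % of DMSO control per cell line.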

[2] = tested on: SDMA (PRMT5 activity) in HAP1 MTAP-deleted cell line; assay: SDMA in-cell western assay, HAP1 MTAP-deleted; details: for IC50 / IC90: Homo sapiens, SDMA in-cell western, HAP1 MTAP-deleted cells, 24 hours compound incubation; for Hap1 MTAP intact/deleted ratio: ratio of SDMA IC50 in HAP1 MTAP-intact to HAP1 MTAP-deleted cell line
[3] = tested on: SDMA (PRMT5 activity) in HAP1 MTAP-intact cell line; assay: SDMA in-cell western assay, HAP1 MTAP-intact; details: Homo sapiens, HAP1, 24 h, SDMA in-cell western, HAP1 MTAP-intact cells, 24 hours compound incubation

Compound | IC50 [2] [nM] | IC90 [2] [nM] | IC50 [3] [nM] | IC50 [1] [nM] | Hap1 MTAP intact/deleted ratio [2]
CCc1cc(NC(=O)C(=O)N2C[C@@H](C)CC[C@@H]2c2cccc(OC3CCN(C)CC3)c2)cnc1N [Compound 58, N-(6-amino-5-ethylpyridin-3-yl)-2-((2R,5S)-5-methyl-2-(3-((1-methylpiperidin-4-yl)oxy)phenyl)piperidin-1-yl)-2-oxoacetamide] | < 5 | < 75 | > 50 | < 100 | A (“A” indicates an IC50 ratio greater than or equal to 30 fold)
CCc1cc(NC(=O)C(=O)N2C[C@@H](C)CC[C@@H]2c2ccc3sc([C@@H]4C[C@@H](C)N(C)C4)nc3c2)cnc1N (mixture of isomers) [Compound 4, N-(6-amino-5-ethyl-3-pyridyl)-2-oxo-2-[(2R,5S)-5-methyl-2-[2-[rac-(3R,5R)-1,5-dimethylpyrrolidin-3-yl]-1,3-benzothiazol-5-yl]-1-piperidyl]acetamide] | < 5 | < 75 | > 50 | < 100 | A (“A” indicates an IC50 ratio greater than or equal to 30 fold)
COc1ncc(NC(=O)C(=O)N2C[C@@H](C)CC[C@@H]2c2ccc3sc(CC4(C)CCN(C)CC4)nc3c2)cc1C(N)=O [Compound 22, 5-(2-((2R,5S)-2-(2-((1,4-dimethylpiperidin-4-yl)methyl)benzo[d]thiazol-5-yl)-5-methylpiperidin-1-yl)-2-oxoacetamido)-2-methoxynicotinamide] | < 5 | < 75 | > 50 | < 100 | B (“B” indicates an IC50 ratio greater than or equal to 15 fold but lower than 30 fold)
CCc1cc(NC(=O)C(=O)N2C[C@@H](C)CC[C@@H]2c2ccc3sc(C[C@H](C)N(C)C)nc3c2)cnc1N [Compound 55, N-(6-amino-5-ethylpyridin-3-yl)-2-((2R,5S)-2-(2-((S)-2-(dimethylamino)propyl)benzo[d]thiazol-5-yl)-5-methylpiperidin-1-yl)-2-oxoacetamide] | < 5 | < 75 | 5 to 50 | < 100 | B (“B” indicates an IC50 ratio greater than or equal to 15 fold but lower than 30 fold)

The next lines start with results.

IC50 [2] [nM] | IC90 [2] [nM] | IC50 [3] [nM] | Compound | IC50 [1] [nM] | Hap1 MTAP intact/deleted ratio [2]
5 to 50 | < 75 | > 50 | CCc1cc(NC(=O)C(=O)N2C[C@@H](C)CC[C@@H]2c2ccc3cn([C@H]4CCN(C)C4)nc3c2)cnc1N [Compound 117, N-(6-amino-5-ethylpyridin-3-yl)-2-((2R,5S)-5-methyl-2-(2-((S)-1-methylpyrrolidin-3-yl)-2H-indazol-6-yl)piperidin-1-yl)-2-oxoacetamide] | < 100 | C (“C” indicates an IC50 ratio of less than 15 fold)
< 5 | < 75 | > 50 | COc1ncc(NC(=O)C(=O)N2C[C@@H](C)CC[C@@H]2c2ccc3sc([C@]45CCC(C4)N(C)C5)nc3c2)cc1C(N)=O [Compound 71, 2-methoxy-5-(2-((2R,5S)-5-methyl-2-(2-((4R)-2-methyl-2-azabicyclo[2.2.1]heptan-4-yl)benzo[d]thiazol-5-yl)piperidin-1-yl)-2-oxoacetamido)nicotinamide] | < 100 | B (“B” indicates an IC50 ratio greater than or equal to 15 fold but lower than 30 fold)
< 5 | < 75 | > 50 | CCc1cc(NC(=O)C(=O)N2C[C@@H](C)CC[C@@H]2c2ccc3sc(CC(C)N4CCCC4)nc3c2)cnc1N (mixture of isomers) [Compound 116, N-(6-amino-5-ethylpyridin-3-yl)-2-((2R,5S)-5-methyl-2-(2-(2-(pyrrolidin-1-yl)propyl)benzo[d]thiazol-5-yl)piperidin-1-yl)-2-oxoacetamide] | < 100 | A (“A” indicates an IC50 ratio greater than or equal to 30 fold)
